Measurements as given in patent publication US20200131196A1 (Mount Tam Therapeutics, Inc., priority 2017, published 2020).
Values joined by “and” are separate entries in the source; they are usually repeats but may differ in a detail not shown here. Identical values can stand only once. Like-named read-outs stand apart in the source and are kept apart here.

What was measured:
[1] = Whole blood concentrations in mice after IP dosing (LC-MS/MS); format: in vivo, mouse; conditions: for approximate mean concentration in whole blood: up to six hours following administration
Procedure: Shown below are whole blood concentrations following administration of the compound of Formula II to mice. The compound of Formula II was administered to mice at 2 mg/kg or 10 mg/kg and the concentration of the compound in whole blood determined. These determinations were made using protein precipitation, liquid chromatography (LC), and mass spectrometry (MS/MS). Ten μl aliquots of whole blood and matrix calibration standards were distributed in a 96-well plate; 10 μl aliquots of blank matrix for matrix blanks and control blanks were included as controls. Ten μl of water was added to each sample followed by vortexing. One hundred sixty […] of internal standard was added to each sample except the matrix blanks; 160 μl 70:30 water:acetonitrile (ACN) was added to matrix blanks. This was followed by a […]. One hundred fifty μl of the resultant supernatant was then transferred to a new 96-well plate and the samples blown to dryness at 35° C. The resultant product was then reconstituted with 90 μl ACN.

TORC2 = target: T1, TORC2 (Homo sapiens, UniProt P42345+P62942); experiment: TORC2 inhibition in PC3 cells (Western blot, phospho Akt (S473)); format: cell-based
T1 construct: endogenous in cells; host or cells: PC3 cells
Procedure: Equal amounts of protein were resolved by SDS-PAGE and transferred to nitrocellulose membrane using the Invitrogen Nu-Page system. […] The following day, blots were washed 3 times in TBST, incubated for 2 hr with secondary antibodies (donkey anti rabbit hrp conjugated), and finally washed an additional 3 times in TBST. ECL Prime (Amersham) was used to detect the proteins of interest and ImageJ was used to quantify blots.

T1 sequence (P62942 2-108 limits assumed, other chains not shown): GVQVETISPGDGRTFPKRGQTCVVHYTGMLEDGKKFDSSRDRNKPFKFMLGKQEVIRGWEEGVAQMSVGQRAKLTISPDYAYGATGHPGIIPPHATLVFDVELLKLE

## CO[C@H]1C[C@@H]2CC[C@@H](C)[C@@](O)(O2)C(=O)C(=O)N2CCCC[C@H]2C(=O)O[C@H]([C@H](C)C[C@H]2C[C@H]3C[C@@H]2C[C@@H]3O)CC(=O)[C@H](C)/C=C(\C)[C@@H](O)[C@@H](OC)C(=O)[C@H](C)C[C@H](C)/C=C/C=C/C=C/1C [Formula II, C37-[(1R,2S,4R,5S)-5-hyhroxybicyclo[2.2.1]heptane] rapamycin]
[1]; 2 mg/kg IP QD × 3 days, Day 1, 1.00 hrs
  Formula II Concentrations in Mouse Whole Blood, Mean: 383 ng/mL
[1]; 2 mg/kg IP QD × 3 days, Day 1, 1.00 hrs, animals 7, 8, 9
  Formula II Concentrations in Mouse Whole Blood, individual animals: 452 ng/mL and 380 ng/mL and 317 ng/mL
[1]; 2 mg/kg IP QD × 3 days, Day 1, 2.00 hrs
  Formula II Concentrations in Mouse Whole Blood, Mean: 403 ng/mL
[1]; 2 mg/kg IP QD × 3 days, Day 1, 2.00 hrs, animals 7, 8, 9
  Formula II Concentrations in Mouse Whole Blood, individual animals: 415 ng/mL (2×) and 378 ng/mL
[1]; 2 mg/kg IP QD × 3 days, Day 1, 6.00 hrs
  Formula II Concentrations in Mouse Whole Blood, Mean: 464 ng/mL
[1]; 2 mg/kg IP QD × 3 days, Day 1, 6.00 hrs, animals 7, 8, 9
  Formula II Concentrations in Mouse Whole Blood, individual animals: 382 ng/mL and 520 ng/mL and 490 ng/mL
[1]; 2 mg/kg IP QD × 3 days, Day 1, 24.0 hrs, animals 7, 8, 9
  Formula II Concentrations in Mouse Whole Blood, individual animals: 18.4 ng/mL and 14.7 ng/mL
[1]; 2 mg/kg IP QD × 3 days, Day 2, 1.00 hrs, animals 7, 8, 9
  Formula II Concentrations in Mouse Whole Blood, individual animals: 481 ng/mL and 208 ng/mL and 524 ng/mL
[1]; 2 mg/kg IP QD × 3 days, Day 2, 2.00 hrs, animals 7, 8, 9
  Formula II Concentrations in Mouse Whole Blood, individual animals: 501 ng/mL and 233 ng/mL and 570 ng/mL
[1]; 2 mg/kg IP QD × 3 days, Day 2, 6.00 hrs, animals 7, 8, 9
  Formula II Concentrations in Mouse Whole Blood, individual animals: 632 ng/mL and 552 ng/mL
[1]; 2 mg/kg IP QD × 3 days, Day 2, 24.0 hrs, animals 7, 8, 9
  Formula II Concentrations in Mouse Whole Blood, individual animals: 15.3 ng/mL and 80.6 ng/mL and 35.2 ng/mL
[1]; 2 mg/kg IP QD × 3 days, Day 3, 1.00 hrs
  Formula II Concentrations in Mouse Whole Blood, Mean: 651 ng/mL
[1]; 2 mg/kg IP QD × 3 days, Day 3, 1.00 hrs, animals 7, 8, 9
  Formula II Concentrations in Mouse Whole Blood, individual animals: 726 ng/mL and 600 ng/mL
[1]; 2 mg/kg IP QD × 3 days, Day 3, 2.00 hrs
  Formula II Concentrations in Mouse Whole Blood, Mean: 501 ng/mL
[1]; 2 mg/kg IP QD × 3 days, Day 3, 2.00 hrs, animals 7, 8, 9
  Formula II Concentrations in Mouse Whole Blood, individual animals: 478 ng/mL and 489 ng/mL and 535 ng/mL
[1]; 2 mg/kg IP QD × 3 days, Day 3, 6.00 hrs
  Formula II Concentrations in Mouse Whole Blood, Mean: 588 ng/mL
[1]; 2 mg/kg IP QD × 3 days, Day 3, 6.00 hrs, animals 7, 8, 9
  Formula II Concentrations in Mouse Whole Blood, individual animals: 416 ng/mL and 745 ng/mL and 604 ng/mL
[1]; 2 mg/kg IP QD × 3 days, Day 3, 24.0 hrs
  Formula II Concentrations in Mouse Whole Blood, Mean: 41.9 ng/mL
[1]; 2 mg/kg IP QD × 3 days, Day 3, 24.0 hrs, animals 7, 8, 9
  Formula II Concentrations in Mouse Whole Blood, individual animals: 17.6 ng/mL and 59.6 ng/mL and 48.6 ng/mL
[1]; 2 mg/kg or 10 mg/kg IP QD for three days
  concentrations in whole blood over time (in words): sufficient concentrations in whole blood
[1]; 10 mg/kg IP QD × 3 days, Day 1, 1.00 hrs
  Formula II Concentrations in Mouse Whole Blood, Mean: 657 ng/mL
[1]; 10 mg/kg IP QD × 3 days, Day 1, 1.00 hrs, animals 10, 11, 12
  Formula II Concentrations in Mouse Whole Blood, individual animals: 560 ng/mL and 641 ng/mL and 769 ng/mL
[1]; 10 mg/kg IP QD × 3 days, Day 1, 2.00 hrs
  Formula II Concentrations in Mouse Whole Blood, Mean: 722 ng/mL
[1]; 10 mg/kg IP QD × 3 days, Day 1, 2.00 hrs, animals 10, 11, 12
  Formula II Concentrations in Mouse Whole Blood, individual animals: 793 ng/mL and 869 ng/mL and 503 ng/mL
[1]; 10 mg/kg IP QD × 3 days, Day 1, 6.00 hrs
  Formula II Concentrations in Mouse Whole Blood, Mean: 1165 ng/mL
[1]; 10 mg/kg IP QD × 3 days, Day 1, 6.00 hrs, animals 10, 11, 12
  Formula II Concentrations in Mouse Whole Blood, individual animals: 1000 ng/mL and 1950 ng/mL and 544 ng/mL
[1]; 10 mg/kg IP QD × 3 days, Day 1, 24.0 hrs
  Formula II Concentrations in Mouse Whole Blood, Mean: 204 ng/mL
[1]; 10 mg/kg IP QD × 3 days, Day 1, 24.0 hrs, animals 10, 11, 12
  Formula II Concentrations in Mouse Whole Blood, individual animals: 222 ng/mL and 181 ng/mL and 210 ng/mL
[1]; 10 mg/kg IP QD × 3 days, Day 2, 1.00 hrs
  Formula II Concentrations in Mouse Whole Blood, Mean: 2309 ng/mL
[1]; 10 mg/kg IP QD × 3 days, Day 2, 1.00 hrs, animals 10, 11, 12
  Formula II Concentrations in Mouse Whole Blood, individual animals: 3410 ng/mL and 2970 ng/mL and 546 ng/mL
[1]; 10 mg/kg IP QD × 3 days, Day 2, 2.00 hrs
  Formula II Concentrations in Mouse Whole Blood, Mean: 3323 ng/mL
[1]; 10 mg/kg IP QD × 3 days, Day 2, 2.00 hrs, animals 10, 11, 12
  Formula II Concentrations in Mouse Whole Blood, individual animals: 3670 ng/mL and 3930 ng/mL and 2370 ng/mL
[1]; 10 mg/kg IP QD × 3 days, Day 2, 6.00 hrs
  Formula II Concentrations in Mouse Whole Blood, Mean: 2256 ng/mL
[1]; 10 mg/kg IP QD × 3 days, Day 2, 6.00 hrs, animals 10, 11, 12
  Formula II Concentrations in Mouse Whole Blood, individual animals: 2770 ng/mL and 3390 ng/mL and 609 ng/mL
[1]; 10 mg/kg IP QD × 3 days, Day 2, 24.0 hrs
  Formula II Concentrations in Mouse Whole Blood, Mean: 179 ng/mL
[1]; 10 mg/kg IP QD × 3 days, Day 2, 24.0 hrs, animals 10, 11, 12
  Formula II Concentrations in Mouse Whole Blood, individual animals: 123 ng/mL and 336 ng/mL and 78.0 ng/mL
[1]; 10 mg/kg IP QD × 3 days, Day 3, 1.00 hrs
  Formula II Concentrations in Mouse Whole Blood, Mean: 2204 ng/mL
[1]; 10 mg/kg IP QD × 3 days, Day 3, 1.00 hrs, animals 10, 11, 12
  Formula II Concentrations in Mouse Whole Blood, individual animals: AQL and 3420 ng/mL and 987 ng/mL
[1]; 10 mg/kg IP QD × 3 days, Day 3, 2.00 hrs
  Formula II Concentrations in Mouse Whole Blood, Mean: 3199 ng/mL
[1]; 10 mg/kg IP QD × 3 days, Day 3, 2.00 hrs, animals 10, 11, 12
  Formula II Concentrations in Mouse Whole Blood, individual animals: 5170 ng/mL and 3650 ng/mL and 777 ng/mL
[1]; 10 mg/kg IP QD × 3 days, Day 3, 6.00 hrs
  Formula II Concentrations in Mouse Whole Blood, Mean: 2317 ng/mL
[1]; 10 mg/kg IP QD × 3 days, Day 3, 6.00 hrs, animals 10, 11, 12
  Formula II Concentrations in Mouse Whole Blood, individual animals: 3330 ng/mL and 2890 ng/mL and 730 ng/mL
[1]; 10 mg/kg IP QD × 3 days, Day 3, 24.0 hrs
  Formula II Concentrations in Mouse Whole Blood, Mean: 223 ng/mL
[1]; 10 mg/kg IP QD × 3 days, Day 3, 24.0 hrs, animals 10, 11, 12
  Formula II Concentrations in Mouse Whole Blood, individual animals: 223 ng/mL and 323 ng/mL and 124 ng/mL
[1]; about 2 mg/kg
  approximate mean concentration in whole blood: 383 to 651 ng/mL
[1]; about 10 mg/kg
  approximate mean concentration in whole blood: 657 to 3323 ng/mL
[1]; mouse, whole blood, intraperitoneal, 2 mg/kg, 2 mg/kg IP QD × 3 days, Day 1, 24.0 hrs, animals 7, 8, 9, read-out: Formula II Concentrations in Mouse Whole Blood, individual animals
  concentration at 24 h: 12.2 ng/mL
[1]; mouse, whole blood, intraperitoneal, 2 mg/kg, 2 mg/kg IP QD × 3 days, Day 1, 24.0 hrs, read-out: Formula II Concentrations in Mouse Whole Blood, Mean
  concentration at 24 h: 15.1 ng/mL
[1]; mouse, whole blood, intraperitoneal, 2 mg/kg, 2 mg/kg IP QD × 3 days, Day 2, 1.00 hrs, read-out: Formula II Concentrations in Mouse Whole Blood, Mean
  concentration at 1 h: 404 ng/mL
[1]; mouse, whole blood, intraperitoneal, 2 mg/kg, 2 mg/kg IP QD × 3 days, Day 2, 2.00 hrs, read-out: Formula II Concentrations in Mouse Whole Blood, Mean
  concentration at 2 h: 435 ng/mL
[1]; mouse, whole blood, intraperitoneal, 2 mg/kg, 2 mg/kg IP QD × 3 days, Day 2, 6.00 hrs, animals 7, 8, 9, read-out: Formula II Concentrations in Mouse Whole Blood, individual animals
  concentration at 6 h: 553 ng/mL
[1]; mouse, whole blood, intraperitoneal, 2 mg/kg, 2 mg/kg IP QD × 3 days, Day 2, 6.00 hrs, read-out: Formula II Concentrations in Mouse Whole Blood, Mean
  concentration at 6 h: 579 ng/mL
[1]; mouse, whole blood, intraperitoneal, 2 mg/kg, 2 mg/kg IP QD × 3 days, Day 2, 24.0 hrs, read-out: Formula II Concentrations in Mouse Whole Blood, Mean
  concentration at 24 h: 43.7 ng/mL
[1]; mouse, whole blood, intraperitoneal, 2 mg/kg, 2 mg/kg IP QD × 3 days, Day 3, 1.00 hrs, animals 7, 8, 9, read-out: Formula II Concentrations in Mouse Whole Blood, individual animals
  concentration at 1 h: 628 ng/mL
[1]; mouse, whole blood, intraperitoneal, 2 mg/kg, about 2 mg/kg, at about 24 hours following administration, read-out: approximate mean concentration in whole blood
  concentration at 24 h: 15 to 43.7 ng/mL
[1]; mouse, whole blood, intraperitoneal, 10 mg/kg, about 10 mg/kg, at about 24 hours following administration, read-out: approximate mean concentration in whole blood
  concentration at 24 h: 21 to 138 ng/mL
TORC2
  IC50: 5 nM
